Experimental data: patent US20240139211A1, “METHODS AND COMPOSITIONS FOR TREATING AMYOTROPHIC LATERAL SCLEROSIS” (Amylyx Pharmaceuticals, Inc., priority 2022, published 2024)

Columns and labels:
OATP1B1 = OATP1B1 (Homo sapiens, UniProt Q9Y6L6); test: in vitro
CYP2B6 mRNA = test: in vitro; details: human
CYP1A2 mRNA = test: in vitro; details: human
MATE1 = target: T1, MATE1 (Homo sapiens, UniProt Q96FL8); test: in vitro
T1 sequence (Q96FL8 1-570): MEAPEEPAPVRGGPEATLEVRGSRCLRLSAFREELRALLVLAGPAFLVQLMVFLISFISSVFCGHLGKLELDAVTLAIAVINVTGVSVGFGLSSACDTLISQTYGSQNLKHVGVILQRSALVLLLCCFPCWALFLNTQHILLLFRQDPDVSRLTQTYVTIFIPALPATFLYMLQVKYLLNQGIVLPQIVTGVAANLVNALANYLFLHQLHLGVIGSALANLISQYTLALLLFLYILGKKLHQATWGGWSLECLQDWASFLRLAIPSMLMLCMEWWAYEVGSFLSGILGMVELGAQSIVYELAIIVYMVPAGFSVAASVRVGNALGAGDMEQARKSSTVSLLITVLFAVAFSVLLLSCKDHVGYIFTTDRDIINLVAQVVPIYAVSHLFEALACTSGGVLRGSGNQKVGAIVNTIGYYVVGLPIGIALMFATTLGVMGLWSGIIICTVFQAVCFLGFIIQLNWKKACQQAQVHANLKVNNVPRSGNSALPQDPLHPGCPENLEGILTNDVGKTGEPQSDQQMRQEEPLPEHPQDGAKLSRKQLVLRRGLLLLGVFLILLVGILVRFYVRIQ

[1] = Rat drug-drug interaction study TDF + AMX0035: plasma pharmacokinetics; details: Day 5, AMX0035 + TDF 840/25 mg/kg oral, male Sprague Dawley rats; individual animals; BLQ = <50 ng/mL
hrCYP2C19 = hrCYP2C19 (Homo sapiens, UniProt P33261); test: CYP reaction phenotyping with hrCYP2C19 (% remaining); format: in vitro ADME; details: human, 1 h, 5 µM, pH 7.4
[2] = target: CYPs in human liver microsomes (HLM) (Homo sapiens, UniProt P11712); test: CYP reaction phenotyping in HLM with chemical inhibitors (% remaining); details: +NADPH +sulfaphenazole (CYP2C9)
[3] = system: CYPs in human liver microsomes (HLM); test: as above
[4] = target: T2, CYPs in human liver microsomes (HLM) (Homo sapiens, UniProt P05177); test: as above; details: +NADPH +furafylline (CYP1A2), pre-incubated
T2 sequence (P05177 1-516): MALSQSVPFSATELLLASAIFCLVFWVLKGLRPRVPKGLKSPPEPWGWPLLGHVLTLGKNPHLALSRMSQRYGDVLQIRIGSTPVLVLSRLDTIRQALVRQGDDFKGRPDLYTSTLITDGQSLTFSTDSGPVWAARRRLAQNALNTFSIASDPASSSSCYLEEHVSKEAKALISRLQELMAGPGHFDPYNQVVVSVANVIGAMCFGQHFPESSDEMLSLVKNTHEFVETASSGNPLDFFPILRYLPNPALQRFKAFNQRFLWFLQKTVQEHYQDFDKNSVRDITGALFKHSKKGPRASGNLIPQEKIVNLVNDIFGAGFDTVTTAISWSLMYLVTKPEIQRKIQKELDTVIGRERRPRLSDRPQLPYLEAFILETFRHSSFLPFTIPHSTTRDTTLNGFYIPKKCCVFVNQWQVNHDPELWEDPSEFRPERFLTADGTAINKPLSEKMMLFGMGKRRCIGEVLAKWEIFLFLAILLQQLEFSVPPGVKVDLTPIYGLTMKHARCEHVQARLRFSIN

[5] = target: CYPs in human liver microsomes (HLM) (Homo sapiens, UniProt P33261); test: as above; details: +NADPH +N3B (CYP2C19)
[6] = target: CYPs in human liver microsomes (HLM) (Homo sapiens, UniProt P10635); test: as above; details: +NADPH +quinidine (CYP2D6)
Sequence of CYPs in human liver microsomes (HLM) (Homo sapiens, UniProt P10635) (P10635 whole entry): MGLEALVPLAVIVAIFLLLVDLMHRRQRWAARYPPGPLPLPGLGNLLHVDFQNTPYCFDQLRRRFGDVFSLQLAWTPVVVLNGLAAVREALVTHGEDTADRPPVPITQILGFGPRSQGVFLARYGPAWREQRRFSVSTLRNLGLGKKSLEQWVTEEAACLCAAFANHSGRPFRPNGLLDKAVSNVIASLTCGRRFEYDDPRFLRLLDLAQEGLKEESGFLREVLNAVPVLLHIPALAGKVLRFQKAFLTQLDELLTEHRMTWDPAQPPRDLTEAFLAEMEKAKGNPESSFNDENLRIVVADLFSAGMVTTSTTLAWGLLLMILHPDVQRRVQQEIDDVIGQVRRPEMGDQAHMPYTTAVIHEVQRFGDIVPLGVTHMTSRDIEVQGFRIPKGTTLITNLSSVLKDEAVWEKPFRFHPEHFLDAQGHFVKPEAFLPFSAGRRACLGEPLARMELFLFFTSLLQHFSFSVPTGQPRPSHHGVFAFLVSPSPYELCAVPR

Sequence of CYPs in human liver microsomes (HLM) (Homo sapiens, UniProt P11712) (P11712 whole entry): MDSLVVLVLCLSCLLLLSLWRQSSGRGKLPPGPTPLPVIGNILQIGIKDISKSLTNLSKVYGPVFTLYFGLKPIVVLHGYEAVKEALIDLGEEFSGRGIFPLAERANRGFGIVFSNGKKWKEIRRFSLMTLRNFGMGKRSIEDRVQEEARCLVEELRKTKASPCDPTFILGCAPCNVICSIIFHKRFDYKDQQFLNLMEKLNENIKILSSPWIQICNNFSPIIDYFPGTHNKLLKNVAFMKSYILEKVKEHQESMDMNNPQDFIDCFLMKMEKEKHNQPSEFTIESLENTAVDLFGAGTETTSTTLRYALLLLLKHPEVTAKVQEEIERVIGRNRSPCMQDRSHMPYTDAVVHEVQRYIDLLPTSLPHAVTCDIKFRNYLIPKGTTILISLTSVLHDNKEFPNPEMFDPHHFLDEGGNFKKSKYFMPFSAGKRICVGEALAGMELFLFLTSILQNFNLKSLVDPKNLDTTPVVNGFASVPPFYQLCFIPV
Sequence of CYPs in human liver microsomes (HLM) (Homo sapiens, UniProt P33261) (P33261 whole entry): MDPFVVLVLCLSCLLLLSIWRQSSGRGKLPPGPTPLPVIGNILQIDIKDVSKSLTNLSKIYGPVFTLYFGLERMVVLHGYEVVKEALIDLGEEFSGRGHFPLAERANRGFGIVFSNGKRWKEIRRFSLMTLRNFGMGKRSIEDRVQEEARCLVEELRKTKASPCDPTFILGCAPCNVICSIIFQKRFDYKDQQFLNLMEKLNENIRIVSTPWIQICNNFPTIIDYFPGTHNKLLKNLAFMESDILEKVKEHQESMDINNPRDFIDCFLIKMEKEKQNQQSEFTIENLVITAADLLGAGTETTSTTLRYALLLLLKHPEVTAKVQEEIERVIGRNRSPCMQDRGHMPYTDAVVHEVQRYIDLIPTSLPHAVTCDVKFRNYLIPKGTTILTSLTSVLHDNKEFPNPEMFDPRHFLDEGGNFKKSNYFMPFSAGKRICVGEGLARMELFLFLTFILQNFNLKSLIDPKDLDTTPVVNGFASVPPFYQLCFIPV
Sequence of OATP1B1 (Q9Y6L6 whole entry): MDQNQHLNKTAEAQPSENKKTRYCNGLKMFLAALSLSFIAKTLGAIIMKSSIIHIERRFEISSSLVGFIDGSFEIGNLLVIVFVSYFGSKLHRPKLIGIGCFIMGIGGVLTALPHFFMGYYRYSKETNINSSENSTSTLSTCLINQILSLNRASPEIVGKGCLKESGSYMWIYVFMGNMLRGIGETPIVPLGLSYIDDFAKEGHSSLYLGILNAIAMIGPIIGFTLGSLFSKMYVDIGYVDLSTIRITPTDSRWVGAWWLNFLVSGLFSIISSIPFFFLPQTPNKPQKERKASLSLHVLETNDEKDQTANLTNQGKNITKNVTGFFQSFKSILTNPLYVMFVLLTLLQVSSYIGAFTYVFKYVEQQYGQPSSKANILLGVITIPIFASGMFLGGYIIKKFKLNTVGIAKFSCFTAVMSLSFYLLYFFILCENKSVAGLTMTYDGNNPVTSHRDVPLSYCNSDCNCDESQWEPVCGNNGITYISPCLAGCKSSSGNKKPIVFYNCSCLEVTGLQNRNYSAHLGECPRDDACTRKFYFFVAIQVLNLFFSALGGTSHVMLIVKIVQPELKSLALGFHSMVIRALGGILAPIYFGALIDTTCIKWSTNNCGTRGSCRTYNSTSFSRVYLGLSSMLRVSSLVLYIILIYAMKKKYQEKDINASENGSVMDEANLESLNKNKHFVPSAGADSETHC
Sequence of hrCYP2C19 (P33261 whole entry): as the sequence (P33261 whole entry) above

O=C(O)Cc1ccccc1 [Phenylacetic acid, phenylacetic acid]
potency estimated from few doses (OATP1B1): > 7500 µM
EC50 at 72 h (CYP2B6 mRNA): 19.5 µM
EC50 at 72 h (CYP1A2 mRNA): 8.18 µM

C[C@H](CCC(=O)NCC(=O)O)[C@H]1CC[C@H]2[C@@H]3[C@@H](O)C[C@@H]4C[C@H](O)CC[C@]4(C)[C@H]3CC[C@]12C [Glycoursodeoxycholic acid, glycoursodeoxycholic acid]
potency estimated from few doses (OATP1B1): ~10 µM
potency estimated from few doses (MATE1): > 100 µM
EC50 at 72 h (CYP2B6 mRNA; hepatocyte cultures): 1.74 µM
fold induction at 72 h (CYP2B6 mRNA; hepatocyte cultures): 5.83
EC50 at 72 h (CYP1A2 mRNA; hepatocyte cultures): 1.88 µM
fold induction at 72 h (CYP1A2 mRNA; hepatocyte cultures): 12.2

O=C(O)CCCc1ccccc1 [PB, sodium phenylbutyrate]
Plasma Concentration of analyte at 8.0 hr [1]: 102 ng/mL
potency estimated from few doses (MATE1): < 250 µM
% remaining after 60 minutes (hrCYP2C19): greater than 90%
% remaining of TA in HLM ([2]; 5 min): 103%
% remaining of TA in HLM ([2]; 20 min): 98.5%
% remaining of TA in HLM ([2]; 30 min): 99.6%
% remaining of TA in HLM ([2]; 60 min): 97.6%
Metabolism by the major CYPs in HLM [3]: neither PB nor TUDCA is metabolized
% remaining of TA in HLM ([3]; +NADPH +ketoconazole (CYP3A), 60 min): 90.6%
% remaining of TA in HLM ([3]; Maximum Metabolism-1: +NADPH −inhibitor, pre-incubated, 10 min): 118%
% remaining of TA in HLM ([3]; Maximum Metabolism-1: +NADPH −inhibitor, pre-incubated, 20 min): 113%
% remaining of TA in HLM ([3]; Maximum Metabolism-1: +NADPH −inhibitor, pre-incubated, 30 min): 110%
% remaining of TA in HLM ([3]; Negative Control-1: −NADPH −inhibitor, pre-incubated, 5 min): 109%
% remaining of TA in HLM ([3]; Negative Control-1: −NADPH −inhibitor, pre-incubated, 10 min): 114%
% remaining of TA in HLM ([3]; Negative Control-1: −NADPH −inhibitor, pre-incubated, 20 min): 113%
% remaining of TA in HLM ([3]; Negative Control-1: −NADPH −inhibitor, pre-incubated, 30 min): 112%
% remaining of TA in HLM ([3]; Negative Control-1: −NADPH −inhibitor, pre-incubated, 60 min): 115%
% remaining of TA in HLM ([4]; 5 min): 116%
% remaining of TA in HLM ([4]; 10 min): 131%
% remaining of TA in HLM ([4]; 20 min): 125%
% remaining of TA in HLM ([4]; 30 min): 127%
% remaining of TA in HLM ([4]; 60 min): 128%
% remaining of TA in HLM ([5]; 5 min): 101%
% remaining of TA in HLM ([5]; 20 min): 101%
% remaining of TA in HLM ([5]; 30 min): 101%
% remaining of TA in HLM ([5]; 60 min): 101%
% remaining of TA in HLM ([6]; 20 min): 97.5%
% remaining of TA in HLM ([6]; 60 min): 98.8%
